Source: ChEMBL document CHEMBL3886917, “Benzimidazole-imidazole derivatives” (2016)

How the values were obtained:
[1] = Stable Transfection Assay: The assay utilized the stably transfected cell line Huh-7 luc/neo (hereafter referred to as Huh-Luc). This cell line harbors an RNA encoding a bicistronic expression construct comprising the wild type NS3-NS5B regions of HCV type 1b translated from an Internal Ribosome Entry Site (IRES) from encephalomyocarditis virus (EMCV), preceded by a reporter portion (FfL-luciferase), and a selectable marker portion (neoR, neomycine phosphotransferase). The construct is flanked by 5' and 3' NTRs (non-translated regions) from HCV type 1b. Continued culture of the replicon cells in the presence of G418 (neoR) is dependent on the replication of the HCV RNA. The stably transfected replicon cells that replicate HCV RNA autonomously and to high levels, encoding inter alia luciferase, were used for screening the antiviral compounds.
[2] = Transient Transfection Assay: In a transient set-up, a Huh-7 lunet hepatoma cell line was transiently transfected with an autonomously replicating RNA encoding a bi-cistronic expression construct. This construct comprises a firefly luciferase reporter gene preceding the NS3-NS5B subgenomic region of HCV (genotype 1a H77 or 1b Con1). Translation of the HCV subgenomic region is mediated by an internal ribosome entry site of encephalomyocarditis virus. The construct is furthermore flanked by 5' and 3' untranslated regions of HCV (genotype 1a H77 or 1b Con 1, respectively), which allow for replication of the RNA. In addition to the wild-type constructs, site-directed mutations were introduced into the transient HCV genotype 1b replicon in the gene encoding for the non-structural protein 5A (NS5A). More precisely, amino acid residues 28, 30, 31 and 93 in NS5A were independently altered. Cells were plated in 384 well plates in the presence of test and control compounds, which were added in various concentrations. Following an incubation of two days, replication of the HCV subgenomic replicon RNA was measured by assaying luciferase activity (using standard luciferase assay substrates and reagents and a Perkin Elmer ViewLux™ ultraHTS microplate imager).; type: cell-based

| Structure (SMILES) | EC50 [1] [pM] | EC50 [2] [pM] |
| --- | --- | --- |
| COC(=O)N[C@H](C(=O)N1CCC[C@H]1c1nc2ccc(-c3ccc4cc(-c5cnc([C@@H]6CCCN6C(=O)[C@@H](NC(=O)OC)[C@@H](C)OC)[nH]5)ccc4c3)cc2[nH]1)C(C)C | 6 | – |
| COC(=O)N[C@H](C(=O)N1CCC[C@H]1c1ncc(-c2ccc3cc(-c4ccc5nc([C@@H]6CCCN6C(=O)[C@@H](NC(=O)OC)[C@@H](C)OC)[nH]c5c4)ccc3c2)[nH]1)C(C)C | – | 7 |
